# Measurements published in ChEMBL document CHEMBL1155237, “Selective inhibitors of the mutant B-Raf pathway: discovery of a potent and orally bioavailable aminoisoquinoline” (J Med Chem, 2009).
# How the values were obtained:
# [1] = target: Serine/threonine-protein kinase Nek7 (Homo sapiens) (UniProt Q8TDX7); experiment: Inhibition of NEK7 assessed as enzyme activity at 1 uM relative to untreated control; set-up: scale not given: the % may be the effect or the level left
# [2] = target: Misshapen-like kinase 1 (Homo sapiens) (UniProt Q8N4C8); experiment: Inhibition of MINK assessed as enzyme activity at 1 uM relative to untreated control; set-up: scale not given: the % may be the effect or the level left
# [3] = target: Cyclin-dependent kinase 2 (Homo sapiens) (UniProt P24941); experiment: Inhibition of CDK2 assessed as enzyme activity at 1 uM relative to untreated control; set-up: scale not given: the % may be the effect or the level left
# [4] = target: Non-receptor tyrosine-protein kinase TYK2 (Homo sapiens) (UniProt P29597); experiment: Inhibition of TYK2 kinase domain 2 assessed as enzyme activity at 1 uM relative to untreated control; set-up: scale not given: the % may be the effect or the level left
# [5] = target: Tyrosine-protein kinase ZAP-70 (Homo sapiens) (UniProt P43403); experiment: Inhibition of ZAP70 assessed as enzyme activity at 1 uM relative to untreated control; set-up: scale not given: the % may be the effect or the level left
# [6] = target: MAP kinase-interacting serine/threonine-protein kinase 1 (Homo sapiens) (UniProt Q9BUB5); experiment: Inhibition of MKNK1 assessed as enzyme activity at 1 uM relative to untreated control; set-up: scale not given: the % may be the effect or the level left
# [7] = target: Ribosomal protein S6 kinase alpha-1 (Homo sapiens) (UniProt Q15418); experiment: Inhibition of RPS6KA1 kinase domain 2 assessed as enzyme activity at 1 uM relative to untreated control; set-up: scale not given: the % may be the effect or the level left
# [8] = target: Vascular endothelial growth factor receptor 2 (Homo sapiens, UniProt P35968); experiment: Inhibition of KDR
# [9] = target: NUAK family SNF1-like kinase 1 (Homo sapiens) (UniProt O60285); experiment: Inhibition of ARK5 assessed as enzyme activity at 1 uM relative to untreated control; set-up: scale not given: the % may be the effect or the level left
# [10] = target: Serine/threonine-protein kinase BRSK2 (Homo sapiens) (UniProt Q8IWQ3); experiment: Inhibition of BRSK2 assessed as enzyme activity at 1 uM relative to untreated control; set-up: scale not given: the % may be the effect or the level left
# [11] = target: Inhibitor of nuclear factor kappa-B kinase subunit beta (Homo sapiens) (UniProt O14920); experiment: Inhibition of IKK-beta assessed as enzyme activity at 1 uM relative to untreated control; set-up: scale not given: the % may be the effect or the level left
# [12] = target: Dual specificity protein kinase CLK3 (Homo sapiens) (UniProt P49761); experiment: Inhibition of CLK3 assessed as enzyme activity at 1 uM relative to untreated control; set-up: scale not given: the % may be the effect or the level left
# [13] = target: Ephrin type-A receptor 3 (Homo sapiens) (UniProt P29320); experiment: Inhibition of EPHA3 assessed as enzyme activity at 1 uM relative to untreated control; set-up: scale not given: the % may be the effect or the level left
# [14] = target: Protein kinase C delta type (Homo sapiens) (UniProt Q05655); experiment: Inhibition of PRKCdelta assessed as enzyme activity at 1 uM relative to untreated control; set-up: scale not given: the % may be the effect or the level left
# [15] = target: Non-receptor tyrosine-protein kinase TNK1 (Homo sapiens) (UniProt Q13470); experiment: Inhibition of TNK1 assessed as enzyme activity at 1 uM relative to untreated control; set-up: scale not given: the % may be the effect or the level left
# [16] = target: Ephrin type-B receptor 2 (Homo sapiens) (UniProt P29323); experiment: Inhibition of EPHB2 assessed as enzyme activity at 1 uM relative to untreated control; set-up: scale not given: the % may be the effect or the level left
# [17] = target: Serine/threonine-protein kinase 32B (Homo sapiens) (UniProt Q9NY57); experiment: Inhibition of YANK2 assessed as enzyme activity at 1 uM relative to untreated control; set-up: scale not given: the % may be the effect or the level left
# [18] = target: Calcium/calmodulin-dependent protein kinase type II subunit gamma (Homo sapiens) (UniProt Q13555); experiment: Inhibition of CAMK2G assessed as enzyme activity at 1 uM relative to untreated control; set-up: scale not given: the % may be the effect or the level left
# [19] = target: Serine/threonine-protein kinase MRCK alpha (Homo sapiens) (UniProt Q5VT25); experiment: Inhibition of MRCKA assessed as enzyme activity at 1 uM relative to untreated control; set-up: scale not given: the % may be the effect or the level left
# Mus musculus = experiment: Inhibition of ERK phosphorylation in human A375 SQ2 cells xenografted CD1 mouse at 2 mg/kg, po qd after 6 hrs; format: functional; details: CD1, A-375, 6 h
# [20] = target: Serine/threonine-protein kinase 10 (Homo sapiens) (UniProt O94804); experiment: Inhibition of LOK assessed as enzyme activity at 1 uM relative to untreated control; set-up: scale not given: the % may be the effect or the level left
# [21] = target: Calcium/calmodulin-dependent protein kinase type 1G (Homo sapiens) (UniProt Q96NX5); experiment: Inhibition of CAMK1G assessed as enzyme activity at 1 uM relative to untreated control; set-up: scale not given: the % may be the effect or the level left
# [22] = target: Calcium/calmodulin-dependent protein kinase kinase 2 (Homo sapiens) (UniProt Q96RR4); experiment: Inhibition of CAMKK2 assessed as enzyme activity at 1 uM relative to untreated control; set-up: scale not given: the % may be the effect or the level left
# [23] = target: Myotonin-protein kinase (Homo sapiens) (UniProt Q09013); experiment: Inhibition of DMPK assessed as enzyme activity at 1 uM relative to untreated control; set-up: scale not given: the % may be the effect or the level left
# [24] = target: Tyrosine-protein kinase Blk (Homo sapiens) (UniProt P51451); experiment: Inhibition of BLK assessed as enzyme activity at 1 uM relative to untreated control; set-up: scale not given: the % may be the effect or the level left
# [25] = target: BDNF/NT-3 growth factors receptor (Homo sapiens) (UniProt Q16620); experiment: Inhibition of TRKB assessed as enzyme activity at 1 uM relative to untreated control; set-up: scale not given: the % may be the effect or the level left
# [26] = target: Hepatocyte growth factor receptor (Homo sapiens) (UniProt P08581); experiment: Inhibition of MET assessed as enzyme activity at 1 uM relative to untreated control; set-up: scale not given: the % may be the effect or the level left
# [27] = target: Tyrosine-protein kinase JAK1 (Homo sapiens) (UniProt P23458); experiment: Inhibition of JAK1 kinase domain 1 assessed as enzyme activity at 1 uM relative to untreated control; set-up: scale not given: the % may be the effect or the level left
# [28] = target: Discoidin domain-containing receptor 2 (Homo sapiens) (UniProt Q16832); experiment: Inhibition of DDR2 assessed as enzyme activity at 1 uM relative to untreated control; set-up: scale not given: the % may be the effect or the level left
# [29] = target: Dual specificity protein kinase CLK1 (Homo sapiens) (UniProt P49759); experiment: Inhibition of CLK1 assessed as enzyme activity at 1 uM relative to untreated control; set-up: scale not given: the % may be the effect or the level left
# [30] = target: Mitogen-activated protein kinase kinase kinase 11 (Homo sapiens) (UniProt Q16584); experiment: Inhibition of MLK3 assessed as enzyme activity at 1 uM relative to untreated control; set-up: scale not given: the % may be the effect or the level left
# [31] = target: Serine/threonine-protein kinase MARK2 (Homo sapiens) (UniProt Q7KZI7); experiment: Inhibition of MARK2 assessed as enzyme activity at 1 uM relative to untreated control; set-up: scale not given: the % may be the effect or the level left
# [32] = target: Ephrin type-A receptor 8 (Homo sapiens) (UniProt P29322); experiment: Inhibition of EPHA8 assessed as enzyme activity at 1 uM relative to untreated control; set-up: scale not given: the % may be the effect or the level left
# [33] = target: LIM domain kinase 2 (Homo sapiens) (UniProt P53671); experiment: Inhibition of LIMK2 assessed as enzyme activity at 1 uM relative to untreated control; set-up: scale not given: the % may be the effect or the level left
# [34] = target: Tyrosine-protein kinase Srms (Homo sapiens) (UniProt Q9H3Y6); experiment: Inhibition of SRMS assessed as enzyme activity at 1 uM relative to untreated control; set-up: scale not given: the % may be the effect or the level left
# [35] = target: Serine/threonine-protein kinase 4 (Homo sapiens) (UniProt Q13043); experiment: Inhibition of MST1 assessed as enzyme activity at 1 uM relative to untreated control; set-up: scale not given: the % may be the effect or the level left
# [36] = target: Tyrosine-protein kinase Yes (Homo sapiens) (UniProt P07947); experiment: Inhibition of YES assessed as enzyme activity at 1 uM relative to untreated control; set-up: scale not given: the % may be the effect or the level left
# [37] = target: Phosphatidylinositol 4-phosphate 3-kinase C2 domain-containing subunit beta (Homo sapiens) (UniProt O00750); experiment: Inhibition of PIK3C2B assessed as enzyme activity at 1 uM relative to untreated control; set-up: scale not given: the % may be the effect or the level left
# Chain of Inhibitor of nuclear factor kappa-B kinase subunit beta (Homo sapiens) (O14920 whole entry): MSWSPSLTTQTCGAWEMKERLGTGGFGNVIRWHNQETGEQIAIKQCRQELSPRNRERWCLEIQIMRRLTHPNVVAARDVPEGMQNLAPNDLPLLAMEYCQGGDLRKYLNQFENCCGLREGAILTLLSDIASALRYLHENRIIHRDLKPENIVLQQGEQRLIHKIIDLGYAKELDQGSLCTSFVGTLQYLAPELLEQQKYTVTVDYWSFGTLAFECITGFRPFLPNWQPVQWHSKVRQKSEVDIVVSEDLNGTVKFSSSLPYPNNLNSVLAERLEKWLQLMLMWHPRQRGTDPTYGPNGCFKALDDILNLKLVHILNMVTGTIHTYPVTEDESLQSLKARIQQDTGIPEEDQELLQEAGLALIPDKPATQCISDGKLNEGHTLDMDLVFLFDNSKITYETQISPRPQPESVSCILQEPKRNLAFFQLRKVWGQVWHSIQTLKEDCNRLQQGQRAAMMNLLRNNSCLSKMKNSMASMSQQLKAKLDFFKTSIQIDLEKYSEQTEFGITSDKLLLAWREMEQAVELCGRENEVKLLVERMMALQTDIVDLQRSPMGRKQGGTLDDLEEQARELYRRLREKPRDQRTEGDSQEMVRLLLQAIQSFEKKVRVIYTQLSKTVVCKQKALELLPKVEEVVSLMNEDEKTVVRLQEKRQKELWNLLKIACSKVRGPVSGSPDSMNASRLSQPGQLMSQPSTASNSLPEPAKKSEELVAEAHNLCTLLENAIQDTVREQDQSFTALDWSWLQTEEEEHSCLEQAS
# Chain of Vascular endothelial growth factor receptor 2 (P35968 whole entry): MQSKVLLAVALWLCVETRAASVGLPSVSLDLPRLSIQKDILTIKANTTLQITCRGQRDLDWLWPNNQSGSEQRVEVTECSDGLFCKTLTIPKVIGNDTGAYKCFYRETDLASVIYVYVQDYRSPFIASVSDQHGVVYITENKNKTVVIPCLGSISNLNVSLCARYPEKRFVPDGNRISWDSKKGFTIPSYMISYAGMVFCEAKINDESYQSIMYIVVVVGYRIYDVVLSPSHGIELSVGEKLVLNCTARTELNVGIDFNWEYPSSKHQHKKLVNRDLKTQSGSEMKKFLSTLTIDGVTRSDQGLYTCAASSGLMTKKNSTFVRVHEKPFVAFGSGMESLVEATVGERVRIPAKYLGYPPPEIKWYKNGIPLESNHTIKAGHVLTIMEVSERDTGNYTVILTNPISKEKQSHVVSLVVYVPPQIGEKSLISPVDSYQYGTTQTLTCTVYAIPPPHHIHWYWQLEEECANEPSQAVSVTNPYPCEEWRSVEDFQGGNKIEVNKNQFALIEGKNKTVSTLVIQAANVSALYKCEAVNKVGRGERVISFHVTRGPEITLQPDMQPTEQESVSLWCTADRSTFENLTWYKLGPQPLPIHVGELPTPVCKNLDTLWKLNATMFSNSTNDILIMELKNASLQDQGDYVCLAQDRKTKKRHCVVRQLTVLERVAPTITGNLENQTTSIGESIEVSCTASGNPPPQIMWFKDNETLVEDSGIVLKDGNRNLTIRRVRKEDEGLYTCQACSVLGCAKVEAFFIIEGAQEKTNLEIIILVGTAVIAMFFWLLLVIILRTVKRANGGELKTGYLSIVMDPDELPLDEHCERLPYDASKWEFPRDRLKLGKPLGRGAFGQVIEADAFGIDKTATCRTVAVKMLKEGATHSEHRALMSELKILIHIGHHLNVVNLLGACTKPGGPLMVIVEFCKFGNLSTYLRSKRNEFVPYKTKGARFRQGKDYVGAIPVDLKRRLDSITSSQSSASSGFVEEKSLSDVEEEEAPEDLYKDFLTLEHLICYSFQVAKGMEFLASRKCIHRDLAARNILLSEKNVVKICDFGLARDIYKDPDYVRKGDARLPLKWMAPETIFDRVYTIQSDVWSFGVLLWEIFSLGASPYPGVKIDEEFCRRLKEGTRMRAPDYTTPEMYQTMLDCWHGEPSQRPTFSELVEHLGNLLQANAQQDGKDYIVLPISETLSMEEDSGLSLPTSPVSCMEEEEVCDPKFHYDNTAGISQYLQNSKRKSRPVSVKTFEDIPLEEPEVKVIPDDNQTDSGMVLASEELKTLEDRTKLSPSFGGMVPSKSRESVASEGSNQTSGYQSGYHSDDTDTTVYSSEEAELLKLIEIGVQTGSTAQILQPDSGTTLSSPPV
# Chain of Serine/threonine-protein kinase Nek7 (Homo sapiens) (Q8TDX7 whole entry, looked up): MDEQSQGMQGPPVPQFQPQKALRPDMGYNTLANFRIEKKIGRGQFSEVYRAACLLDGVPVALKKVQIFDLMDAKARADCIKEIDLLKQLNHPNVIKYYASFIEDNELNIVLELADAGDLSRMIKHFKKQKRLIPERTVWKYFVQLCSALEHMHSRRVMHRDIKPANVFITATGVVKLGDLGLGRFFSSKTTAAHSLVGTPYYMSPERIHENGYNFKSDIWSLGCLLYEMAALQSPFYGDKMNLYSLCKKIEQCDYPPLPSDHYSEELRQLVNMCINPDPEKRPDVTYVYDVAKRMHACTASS
# Chain of Ephrin type-B receptor 2 (Homo sapiens) (P29323 whole entry): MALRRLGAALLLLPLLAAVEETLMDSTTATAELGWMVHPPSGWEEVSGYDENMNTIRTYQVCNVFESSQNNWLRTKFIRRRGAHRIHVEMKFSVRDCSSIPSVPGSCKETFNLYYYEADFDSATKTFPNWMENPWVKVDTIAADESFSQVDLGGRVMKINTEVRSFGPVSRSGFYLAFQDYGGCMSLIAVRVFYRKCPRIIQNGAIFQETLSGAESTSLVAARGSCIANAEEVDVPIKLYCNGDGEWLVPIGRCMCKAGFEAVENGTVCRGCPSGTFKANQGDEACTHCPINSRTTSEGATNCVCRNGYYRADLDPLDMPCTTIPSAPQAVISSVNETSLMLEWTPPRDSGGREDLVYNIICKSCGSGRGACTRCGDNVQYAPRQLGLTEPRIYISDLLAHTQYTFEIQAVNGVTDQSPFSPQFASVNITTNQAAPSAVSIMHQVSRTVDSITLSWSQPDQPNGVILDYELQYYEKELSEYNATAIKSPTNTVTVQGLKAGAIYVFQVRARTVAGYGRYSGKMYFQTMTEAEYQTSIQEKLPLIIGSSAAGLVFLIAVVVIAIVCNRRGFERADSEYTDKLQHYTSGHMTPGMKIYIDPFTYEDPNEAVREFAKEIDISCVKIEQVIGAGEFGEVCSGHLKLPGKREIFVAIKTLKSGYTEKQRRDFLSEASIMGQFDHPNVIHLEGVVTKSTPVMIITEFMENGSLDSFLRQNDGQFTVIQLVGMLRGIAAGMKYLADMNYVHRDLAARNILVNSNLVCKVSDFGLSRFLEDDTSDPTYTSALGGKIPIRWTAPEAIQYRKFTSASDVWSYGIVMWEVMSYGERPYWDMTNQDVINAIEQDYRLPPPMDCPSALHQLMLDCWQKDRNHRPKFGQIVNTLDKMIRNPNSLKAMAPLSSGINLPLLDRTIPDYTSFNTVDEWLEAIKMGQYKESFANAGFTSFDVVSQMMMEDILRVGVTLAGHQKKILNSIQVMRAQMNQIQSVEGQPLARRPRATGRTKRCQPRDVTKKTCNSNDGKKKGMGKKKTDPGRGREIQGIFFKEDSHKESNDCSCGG
# Chain of Ephrin type-A receptor 3 (Homo sapiens) (P29320 whole entry): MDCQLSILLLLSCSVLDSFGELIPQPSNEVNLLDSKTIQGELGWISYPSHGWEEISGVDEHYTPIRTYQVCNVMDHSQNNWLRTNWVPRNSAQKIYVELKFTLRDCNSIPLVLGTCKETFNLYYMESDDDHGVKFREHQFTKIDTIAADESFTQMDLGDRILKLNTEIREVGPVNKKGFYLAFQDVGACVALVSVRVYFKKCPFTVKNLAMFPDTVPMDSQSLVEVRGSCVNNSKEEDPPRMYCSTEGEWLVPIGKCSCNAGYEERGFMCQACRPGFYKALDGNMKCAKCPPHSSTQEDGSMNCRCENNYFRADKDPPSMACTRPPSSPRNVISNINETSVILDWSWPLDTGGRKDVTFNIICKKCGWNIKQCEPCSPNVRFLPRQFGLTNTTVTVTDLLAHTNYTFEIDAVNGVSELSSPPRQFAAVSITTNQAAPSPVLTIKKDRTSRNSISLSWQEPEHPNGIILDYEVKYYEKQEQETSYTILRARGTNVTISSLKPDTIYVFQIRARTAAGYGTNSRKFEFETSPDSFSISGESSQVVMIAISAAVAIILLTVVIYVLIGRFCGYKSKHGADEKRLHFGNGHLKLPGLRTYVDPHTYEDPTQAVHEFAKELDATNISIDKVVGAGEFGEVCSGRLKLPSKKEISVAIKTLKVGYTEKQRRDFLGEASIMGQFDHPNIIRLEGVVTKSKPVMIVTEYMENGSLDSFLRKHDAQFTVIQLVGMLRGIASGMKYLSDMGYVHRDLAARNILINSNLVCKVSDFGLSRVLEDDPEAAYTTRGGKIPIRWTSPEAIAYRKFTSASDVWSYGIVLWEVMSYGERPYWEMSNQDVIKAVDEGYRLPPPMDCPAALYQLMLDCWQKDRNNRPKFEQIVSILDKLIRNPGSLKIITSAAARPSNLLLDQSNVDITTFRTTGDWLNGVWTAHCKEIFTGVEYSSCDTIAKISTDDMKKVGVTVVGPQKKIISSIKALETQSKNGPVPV
# Chain of LIM domain kinase 2 (Homo sapiens) (P53671 whole entry, looked up, the tested form may be a part): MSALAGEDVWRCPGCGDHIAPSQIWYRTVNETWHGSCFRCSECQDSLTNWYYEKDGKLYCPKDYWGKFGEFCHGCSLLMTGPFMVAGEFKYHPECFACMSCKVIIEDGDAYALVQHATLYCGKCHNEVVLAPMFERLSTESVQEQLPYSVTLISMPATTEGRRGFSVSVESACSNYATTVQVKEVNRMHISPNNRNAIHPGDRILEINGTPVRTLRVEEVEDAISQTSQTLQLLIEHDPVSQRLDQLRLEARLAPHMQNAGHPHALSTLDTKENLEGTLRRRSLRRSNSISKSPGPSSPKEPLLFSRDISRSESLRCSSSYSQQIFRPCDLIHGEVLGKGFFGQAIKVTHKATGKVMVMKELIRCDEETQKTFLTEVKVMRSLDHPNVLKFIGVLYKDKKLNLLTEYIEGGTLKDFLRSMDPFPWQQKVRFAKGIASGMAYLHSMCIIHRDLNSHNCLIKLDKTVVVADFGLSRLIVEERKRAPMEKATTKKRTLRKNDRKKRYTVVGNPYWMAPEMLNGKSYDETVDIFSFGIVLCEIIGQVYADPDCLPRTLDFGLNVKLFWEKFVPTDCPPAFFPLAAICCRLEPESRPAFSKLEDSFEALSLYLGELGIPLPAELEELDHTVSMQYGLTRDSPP
smiles,measurement,setting,value
Cc1ccc2c(Nc3ccc(Cl)cc3)nccc2c1Nc1ncccc1-c1ncnc2[nH]cnc12.Cl.Cl.Cl,Activity,[1],88%
same,Activity,[2],80%
same,Activity,[3],100%
same,Activity,[4],28%
same,Activity,[5],100%
same,Activity,[6],100%
same,Activity,[7],96%
same,IC50,[8],1 µM
same,Activity,[9],100%
same,Activity,[10],87%
same,Activity,[11],100%
same,Activity,[12],94%
same,Activity,[13],74%
same,Activity,[14],88%
same,Activity,[15],100%
same,Activity,[16],6.1%
same,Activity,[17],95%
same,Activity,[18],98%
same,Activity,[19],87%
same,inhibition in vivo at 2 mg/kg,Mus musculus,69%
same,Activity,[20],0%
same,Activity,[21],100%
same,Activity,[22],98%
same,Activity,[23],100%
same,Activity,[24],75%
same,Activity,[25],9.4%
same,Activity,[26],73%
same,Activity,[27],98%
same,Activity,[28],6.6%
same,Activity,[29],100%
same,Activity,[30],100%
same,Activity,[31],100%
same,Activity,[32],0.45%
same,Activity,[33],98%
same,Activity,[34],100%
same,Activity,[35],88%
same,Activity,[36],52%
same,Activity,[37],100%
